{"source": "patent US20080171745A1", "about": "“METHODS RELATING TO THE TREATMENT OF FIBROSIS” (UNIVERSITY OF WASHINGTON, priority 2005, published 2008)", "key": {"[1]": {"tested_on": "collagen 1A2", "assay": "RT-PCR in bleomycin treated mice", "assay_type": "in vivo", "settings": "5 mgs/Kg/day s.c."}, "[2]": {"tested_on": "S100A4", "assay": "RT-PCR in bleomycin treated mice", "assay_type": "in vivo", "settings": "5 mgs/Kg/day s.c."}, "[3]": {"tested_on": "C57/B16 mice", "assay": "Bleomycin induced murine pulmonary fibrosis, lung sections stained with trichrome, body weight and survival", "assay_type": "in vivo", "settings": "for disease progression, as judged by reduced mortality, histopathology and endogenous gene expression: bleomycin murine model, 5 mg/Kg/day", "method": "Murine models of bleomycin induced fibrosis have been developed in order to study fibrotic disease progression.\nThere is an absence of airway epithelium in lower left compared to upper left (see arrow heads) and extensive collagen deposition (lower left). On the sixth day, either saline (upper right) or ICG-001 (5 mgs/Kg/day) was administered for 10 days after which the mice were sacrificed and sectioned. Of interest is the upper right (saline treatment) showing lack of normal airway epithelialization, extensive collagen deposition and intra-airway hypercellularity (fibroblasts and inflammatory influx)."}, "[4]": {"tested_on": "IPF patient fibroblasts", "assay": "IPF patient fibroblasts, Western blots on whole cell lysates", "assay_type": "cell-based, human", "method": "Western blots for S100A4 (also know as FSP-1 or fibroblast specific protein-1) and E-Cadherin were performed on whole cell lysates."}, "[5]": {"settings": "bleomycin 5 days, then 5 mgs/Kg/day for 10 days"}, "[6]": {"settings": "RPMI 1640+10% FBS, 2 days, whole cell lysates"}}, "data": [{"smiles": "O=C1[C@H](Cc2ccc(O)cc2)N2C(=O)CCN(C(=O)NCc3ccccc3)[C@H]2CN1Cc1cccc2ccccc12", "note": "[ICG-001]", "values": [{"measurement": "collagen 1A2 message (RT-PCR)", "setting": "[1]", "result": "reduced essentially to negative control"}, {"measurement": "S100A4 message (RT-PCR)", "setting": "[2]", "result": "reduced essentially to negative control"}, {"measurement": "airway histology (epithelialization)", "setting": "[3]; [5]", "result": "airway looks essentially normal"}, {"measurement": "body weight", "setting": "[3]; [5]", "result": "regained normal body weight"}, {"measurement": "collagen levels (trichrome stain)", "setting": "[3]; [5]", "result": "normal collagen levels"}, {"measurement": "survival", "setting": "[3]; bleomycin 5 days, then 5 mgs/Kg/day for 10 days, untreated controls did not survive", "result": "survived"}, {"measurement": "disease progression, as judged by reduced mortality, histopathology and endogenous gene expression", "setting": "[3]", "result": "not only halted but reversed disease progression"}, {"measurement": "disease progression, as judged by reduced mortality, histopathology and endogenous gene expression", "setting": "[3]; listed as ICG-011, 5 mg/kg/day", "result": "not only halts but reverses disease progression"}, {"measurement": "S100A4 and E-cadherin expression at the mRNA level", "setting": "[4]; IPF patient fibroblasts", "result": "this is also true at the mRNA level"}, {"measurement": "E-Cadherin expression, Western blot", "setting": "[4]; [6]", "result": "increased E-Cadherin expression"}, {"measurement": "S100A4 (FSP-1) expression, Western blot", "setting": "[4]; [6]", "result": "decreased S100A4 expression"}]}]}
